Consider one compound from article PMC6176332, “Studies on the Interaction between Three Small Flavonoid Molecules and Bovine Lactoferrin” (BioMed Research International, 2018).

In the assay the target is T1, bovine lactoferrin (BLF) (Bos taurus, UniProt P24627).
T1 construct: gene LTF
Briefly: intrinsic fluorescence quenching (excitation […] nm), double-log plot. The assay is classed as binding. The settings on record: 0.05 M phosphate buffer, pH 7.4, 300 K, about 1% ethanol; n = 1.076; in 1/M.

T1 sequence (P24627 20-708): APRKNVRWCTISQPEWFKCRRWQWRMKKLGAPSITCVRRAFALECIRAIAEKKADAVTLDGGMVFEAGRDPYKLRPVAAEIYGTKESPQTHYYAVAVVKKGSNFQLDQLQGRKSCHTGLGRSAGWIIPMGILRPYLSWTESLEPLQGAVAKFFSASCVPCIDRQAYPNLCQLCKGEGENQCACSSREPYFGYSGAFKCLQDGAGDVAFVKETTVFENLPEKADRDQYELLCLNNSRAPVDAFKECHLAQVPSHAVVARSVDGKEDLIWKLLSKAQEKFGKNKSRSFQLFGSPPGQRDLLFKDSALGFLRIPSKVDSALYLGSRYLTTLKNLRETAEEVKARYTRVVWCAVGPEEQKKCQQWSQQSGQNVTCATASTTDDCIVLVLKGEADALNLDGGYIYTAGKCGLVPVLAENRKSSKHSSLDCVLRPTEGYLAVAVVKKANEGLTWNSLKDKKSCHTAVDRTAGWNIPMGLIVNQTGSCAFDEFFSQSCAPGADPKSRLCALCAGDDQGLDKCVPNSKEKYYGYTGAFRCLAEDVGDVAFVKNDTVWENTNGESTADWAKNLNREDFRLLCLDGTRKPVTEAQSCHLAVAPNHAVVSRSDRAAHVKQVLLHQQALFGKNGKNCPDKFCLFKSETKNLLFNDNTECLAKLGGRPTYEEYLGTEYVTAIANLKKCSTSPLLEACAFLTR

On to `O=C1C[C@@H](c2ccc(O)cc2)Oc2cc(O)cc(O)c21` [Naringenin], for which the “Ka (×10^4M^-1)” value is recorded as 3.05 ×10^4.
